Results: patent publication US20240368149A1, “ANALOGS OF XANOMELINE” (Terran Biosciences Inc., priority 2023, published 2024)
Read-outs that look alike come from different tables or passages of the source.

How the values were obtained:
[1] = Rat PK: plasma prodrug concentration after intramuscular (IM) dosing of xanomeline prodrugs at 5 mg/kg (Example A-4); assay type: in vivo, male Sprague-Dawley (SD) rats; conditions: male, Sprague-Dawley, IM 5 mg/kg of xanomeline; for Cmax / AUC(0-inf) / AUC(0-t): im; for AUC(0-inf): read-out: Prodrug AUCINF_obs; for AUC(0-t): read-out: Prodrug AUClast; for concentration at 0.5 h: 0.500 h
Method: (§1) • Step 1: A stock solution of the compound(s) were prepared to 1 mg/ml in DMSO • Step 2: A 10,000 ng/mL matched matrix standard was prepared using the stock solution(s) • Step 3: Calibration standards in matched matrix were prepared between 10,000 ng/ml and 0.5 ng/mL using serial dilution • Step 4: QC samples were prepared in matched matrix at 4000, 800, 400, 40 and 10 ng/mL
(§2) • Step 1: Add 10 μL of the standards, QCs and samples to a 96-well plate (extraction plate) • Step 2: To each standard, QC and test sample, add 100 μL of ISZ • Step 3: Sonicate for 2 min then mix the plate for approximately 2 min at 1200 rpm on a plate shaker • Step 4: Centrifuge the plate at 3000 rpm for 5 min • Step 5: Add 50 μL 0.1% formic acid in UP H2O to wells of a new 96-well plate • Step 6: Transfer 50 μL extracted sample to relevant position in second 96-well plate • Step 7: Mix at 1200 rpm for 2 min • Step 8: Heat seal and analyse on the LC-MS/MS system • Instrument: Xevo TQ-D with CTC Autosampler
(§3) Samples were sent for method optimization and measurement of prodrug via unique calibration lines and following acceptance QC's. Dose formulation concentrations were also measured, and PK parameters were determined (Cmax (ng/mL), Tmax (hr), Cl (ml/min/kg), Vdss (L/kg), t½ (hr), AUC0-t (ng/mL*hr), AUC0-inf (ng/mL*hr), MRT (hr), Bioavailability (% F) where warranted) using WinNon Lin software. Data (including bioanalytical results and assay performance) were reported in a tabulated format and QC'd.
Formulation for IM administration: All compounds were formulated as solutions or fine suspensions in saline at 12.5 mg API/mL. This provided doses of 5 mg/kg (equivalent of xanomeline) when given to a 250 g rat in a 100 μL dosing volume.
The pharmacokinetic properties of the synthesized xanomeline prodrugs after intramuscular administration in a rat model were assessed. The concentration of prodrug was measured in each rat at various sampling timepoints after intramuscular administration of the synthesized xanomeline prodrugs to rats.
Dose formulations were made at equivalent concentrations of active compound (xanomeline) adjusted for molecular weight of the compounds. The synthesized xanomeline prodrugs were dosed at 5 mg/kg intramuscular (IM) nominal dose. Nominal doses were used in PK parameter determinations.

[2] = Rat PK: plasma prodrug concentration after intravenous (IV) dosing of xanomeline prodrugs at 1 mg/kg (Example A-6); assay type: in vivo, male Sprague-Dawley (SD) rats; conditions: male, Sprague-Dawley, IV 1 mg/kg of xanomeline; for concentration at 0.25 h / concentration at 0.5 h / concentration at 0.75 h / Cmax / AUC(0-inf) / AUC(0-t): iv, 1 mg/kg; for concentration at 0.25 h: 0.250 h; for concentration at 0.25 h / concentration at 0.5 h / concentration at 0.75 h: read-out: Prodrug Plasma Concentrations Following Intravenous Dosing; for concentration at 0.5 h: 0.500 h; for concentration at 0.75 h: 0.750 h; for AUC(0-inf): read-out: Prodrug AUCINF_obs; for AUC(0-t): read-out: Prodrug AUClast
Method: as §1, §2, §3
Compound was dissolved in DMSO:HPCD (20% w/v in water) [10:90] 0.5 mg API/mL to provide doses of 1 mg/kg when administered IV in a 2 mL/kg dosing volume.
The pharmacokinetic properties of the synthesized xanomeline prodrugs after intravenous administration in a rat model were assessed. The concentration of prodrug was measured in each rat at various sampling timepoints after intravenous administration of the synthesized xanomeline prodrugs to rats.
Dose formulations were made at equivalent concentrations of active compound (xanomeline) adjusted for molecular weight of the compounds. The synthesized xanomeline prodrugs were dosed at 1 mg/kg intravenous (IV) nominal dose. Nominal doses were used in PK parameter determinations.

[3] = 5 mg/kg, analyte prodrug, individual animals
[4] = intramuscular, 5 mg/kg, Mean, read-out: Prodrug Plasma Concentrations Following Intramuscular Dosing
[5] = intramuscular, 5 mg/kg, individual animals, read-out: Prodrug Plasma Concentrations Following Intramuscular Dosing
[6] = analyte prodrug, individual animals

Tmax ([1]; analyte prodrug, Mean): 30 min | Cmax ([1]; 5 mg/kg, analyte prodrug, Mean): 218 ng/mL | AUC(0-inf) ([1]; 5 mg/kg, analyte prodrug, Mean): 697 ng·h/mL | AUC(0-t) ([1]; 5 mg/kg, analyte prodrug, Mean): 618 ng·h/mL | Cmax [1, 3]: 284 ng/mL | AUC(0-inf) [1, 3]: 891 ng·h/mL | AUC(0-t) [1, 3]: 667 ng·h/mL | concentration at 0.5 h [1, 4]: 218 ng/mL | concentration at 0.5 h [1, 5]: 284 ng/mL | concentration at 1 h [1, 4]: 128 ng/mL | concentration at 1 h [1, 5]: 115 ng/mL | concentration at 2 h [1, 4]: 83 ng/mL | concentration at 2 h [1, 5]: 80.2 ng/mL | concentration at 4 h [1, 4]: 35.9 ng/mL | concentration at 4 h [1, 5]: 38.6 ng/mL | concentration at 8 h ([1]; intramuscular, 5 mg/kg, 8.00 h, Mean, read-out: Prodrug Plasma Concentrations Following Intramuscular Dosing): 13.7 ng/mL | concentration at 24 h ([1]; intramuscular, 5 mg/kg, 24.0 h, Mean, read-out: Prodrug Plasma Concentrations Following Intramuscular Dosing): 1.59 ng/mL | concentration at 31 h [1, 4]: 1.04 ng/mL | concentration at 31 h [1, 5]: 1.01 ng/mL | concentration at 48 h [1, 4]: 0.666 ng/mL | concentration at 48 h [1, 5]: 0.775 ng/mL | concentration at 96 h [1, 4]: 0.255 ng/mL | concentration at 96 h [1, 5]: 0.764 ng/mL | Tmax [2, 6]: 15 min | concentration at 0.25 h ([2]; Mean): 27.2 ng/mL | concentration at 0.25 h ([2]; individual animals): 35.4 ng/mL | concentration at 0.5 h ([2]; Mean): 11.8 ng/mL | concentration at 0.5 h ([2]; individual animals): 15.2 ng/mL | concentration at 0.75 h ([2]; Mean): 7.1 ng/mL | concentration at 0.75 h ([2]; individual animals): 8.62 ng/mL | Cmax ([2]; analyte prodrug, Mean): 27.2 ng/mL | AUC(0-inf) ([2]; analyte prodrug, Mean): 22.9 ng·h/mL | AUC(0-t) ([2]; analyte prodrug, Mean): 17.8 ng·h/mL | Cmax [2, 6]: 35.4 ng/mL | AUC(0-inf) [2, 6]: 27.1 ng·h/mL | AUC(0-t) [2, 6]: 24 ng·h/mL
Structure (SMILES): CCCCCCOc1nsnc1C1=CCC[N+](C)(C(C)OC(=O)C(C)(C)C)C1 (stereo not drawn) [Compound 19]
